In ChEMBL document CHEMBL1127333, “Antiviral enantiomeric preference for 5'-noraristeromycin” (J Med Chem, 1994):
In brackets after ≈: the same amount, converted by molar mass.

Columns and labels:
Vero [1] = assay: Activity against reovirus-1 induced cytopathicity in Vero cells; assay type: functional; conditions: Chlorocebus sabaeus
MDCK [2] = assay: cells; conditions: Canis lupus familiaris
Vero [3] = assay: cells; conditions: Chlorocebus sabaeus
E6SM [4] = assay: Activity against VV virus induced cytopathicity in E6SM cells; assay type: functional; conditions: Homo sapiens
E6SM [5] = assay: Activity against HSV-2(G) virus induced cytopathicity in E6SM cells; assay type: functional; conditions: Homo sapiens
Vero [6] = assay: Activity against semliki forest virus induced cytopathicity in Vero cells; assay type: functional; conditions: Chlorocebus sabaeus
HEL [7] = assay: Activity against VZV (OKA) induced cytopathicity in HEL cells; assay type: functional; conditions: Homo sapiens
Homo sapiens [8] = organism: Homo sapiens; assay: Inhibitory concentration on human T-lymphocyte CEM/0 cells; assay type: functional, cell-based; conditions: CCRF-CEM
HeLa [9] = assay: Activity against coxsackie B4 virus induced cytopathicity in HeLa cells; assay type: functional; conditions: Homo sapiens
HeLa [10] = assay: cells; conditions: Homo sapiens
HEL [11] = assay: Activity against VZV (YS) induced cytopathicity in HEL cells; assay type: functional; conditions: Homo sapiens
HeLa [12] = assay: Activity against parainfluenza-3 virus induced cytopathicity in HeLa cells; assay type: functional; conditions: Homo sapiens
Vero [13] = assay: cells; conditions: Chlorocebus sabaeus; remark: listed apart in the source
MDCK [14] = assay: cells; conditions: Canis lupus familiaris; remark: listed apart in the source
E6SM [15] = assay: Activity against HSV-1(KOS) virus induced cytopathicity in E6SM cells; assay type: functional; conditions: Homo sapiens
CCRF-CEM [16] = assay: Activity against HIV-1 induced cytopathicity in CEM cells; assay type: functional; conditions: Homo sapiens
HEL [17] = assay: Activity against CMV (Davis) induced cytopathicity in HEL cells; assay type: functional; conditions: Homo sapiens
Vero [18] = assay: Activity against sindbis virus induced cytopathicity in Vero cells; assay type: functional; conditions: Chlorocebus sabaeus
[19] = test system: Respiratory syncytial virus; assay: Activity against RSV (strain Long) virus induced cytopathicity in HeLa cells; assay type: functional; conditions: human respiratory syncytial virus
HEL [20] = assay: Activity against CMV (AD-169) induced cytopathicity in HEL cells; assay type: functional; conditions: Homo sapiens
HeLa [21] = assay: Activity against VSV virus induced cytopathicity in HeLa cells; assay type: functional; conditions: Homo sapiens
E6SM [22] = assay: Activity against VSV virus induced cytopathicity in E6SM cells; assay type: functional; conditions: Homo sapiens
L1210 = assay: Inhibitory concentration on murine leukemia L1210/0 cells; assay type: functional, cell-based; conditions: Mus musculus
CCRF-CEM [23] = assay: Activity against HIV-2 induced cytopathicity in CEM cells; assay type: functional; conditions: Homo sapiens
Homo sapiens [24] = organism: Homo sapiens; assay: Inhibitory concentration on human T-lymphocyte Molt4 (clone 8) cells; assay type: functional, cell-based; conditions: MOLT-4
Homo sapiens [25] = organism: Homo sapiens; assay: Inhibitory concentration on human T-lymphocyte Molt(clone 8) cells; assay type: functional, cell-based
Adenosylhomocysteinase = Adenosylhomocysteinase (Mus musculus, UniProt P50247); assay: Binding affinity against L929 cells AdoHcy hydrolase activity; assay type: cell-based
MDCK [26] = assay: Activity against influenza B virus induced cytopathicity in MDCK cells; assay type: functional; conditions: Canis lupus familiaris
MDCK [27] = assay: Activity against influenza A virus induced cytopathicity in MDCK cells; assay type: functional; conditions: Canis lupus familiaris

Chain of Adenosylhomocysteinase (P50247 whole entry): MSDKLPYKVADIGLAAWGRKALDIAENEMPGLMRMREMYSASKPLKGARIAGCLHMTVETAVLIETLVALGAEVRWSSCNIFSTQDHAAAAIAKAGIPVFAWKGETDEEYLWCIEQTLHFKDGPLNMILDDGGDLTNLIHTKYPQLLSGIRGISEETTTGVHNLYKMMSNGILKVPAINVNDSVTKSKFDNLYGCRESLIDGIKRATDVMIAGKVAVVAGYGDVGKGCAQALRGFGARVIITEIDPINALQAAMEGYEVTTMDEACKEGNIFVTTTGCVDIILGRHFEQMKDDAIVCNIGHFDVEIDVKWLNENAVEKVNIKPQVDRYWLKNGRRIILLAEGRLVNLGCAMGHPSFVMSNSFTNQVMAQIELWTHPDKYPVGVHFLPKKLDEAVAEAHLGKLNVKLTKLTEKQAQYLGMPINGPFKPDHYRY

Nc1ncnc2c1ncn2[C@H]1C[C@@H](O)[C@H](O)[C@@H]1O
MIC50 (Vero [1]): 7 µg/mL (≈ 27.9 µM)
MIC50 (MDCK [2]): > 200 µg/mL
MIC50 (Vero [3]): 50 µg/mL (≈ 199 µM)
MIC50 (E6SM [4]): 0.7 µg/mL (≈ 2.79 µM)
MIC50 (E6SM [5]): > 400 µg/mL
MIC50 (Vero [6]): > 400 µg/mL
MIC50 (HEL [7]): > 50 µg/mL
IC50 (Homo sapiens [8]): 3990 nM
MIC50 (HeLa [9]): > 400 µg/mL
MIC50 (HeLa [10]): > 400 µg/mL
MIC50 (HEL [11]): > 50 µg/mL
MIC50 (HeLa [12]): 0.2 µg/mL (≈ 0.796 µM)
MIC50 (Vero [13]): 30 µg/mL (≈ 119 µM)
MIC50 (MDCK [14]): > 200 µg/mL
MIC50 (E6SM [15]): > 400 µg/mL
MIC50 (CCRF-CEM [16]): > 4 µg/mL
MIC50 (HEL [17]): 3 µg/mL (≈ 11.9 µM)
MIC50 (Vero [18]): > 400 µg/mL
MIC50 [19]: > 200 µg/mL
MIC50 (HEL [20]): 5 µg/mL (≈ 19.9 µM)
MIC50 (HeLa [21]): 2 µg/mL (≈ 7.96 µM)
MIC50 (E6SM [22]): 2 µg/mL (≈ 7.96 µM)
IC50 (L1210): 5700 nM
MIC50 (CCRF-CEM [23]): > 4 µg/mL
IC50 (Homo sapiens [24]): 4650 nM

Nc1ncnc2c1ncn2C1CC(O)C(O)C1O (racemic)
IC50 (Homo sapiens [8]): 680 nM
IC50 (Homo sapiens [25]): 580 nM
Ki (Adenosylhomocysteinase): 11.1 nM
IC50 (L1210): 630 nM

Nc1ncnc2c1ncn2[C@@H]1C[C@H](O)[C@@H](O)[C@H]1O [NORARISTEROMYCIN]
MIC50 (Vero [1]): 0.7 µg/mL (≈ 2.79 µM)
MIC50 (Vero [3]): 8 µg/mL (≈ 31.8 µM)
MIC50 (E6SM [4]): 0.04 µg/mL (≈ 0.159 µM)
MIC50 (E6SM [5]): > 400 µg/mL
MIC50 (Vero [6]): > 400 µg/mL
MIC50 (HEL [7]): > 50 µg/mL
IC50 (Homo sapiens [8]): 420 nM
MIC50 (HeLa [9]): > 400 µg/mL
MIC50 (HeLa [10]): > 400 µg/mL
MIC50 (HEL [11]): > 50 µg/mL
MIC50 (HeLa [12]): 0.07 µg/mL (≈ 0.279 µM)
MIC50 (Vero [13]): 6 µg/mL (≈ 23.9 µM)
MIC50 (E6SM [15]): > 400 µg/mL
MIC50 (CCRF-CEM [16]): > 0.16 µg/mL
MIC50 (HEL [17]): 0.03 µg/mL (≈ 0.119 µM)
MIC50 (Vero [18]): > 400 µg/mL
MIC50 [19]: > 200 µg/mL
MIC50 (MDCK [26]): > 100 µg/mL
MIC50 (HEL [20]): 0.01 µg/mL (≈ 0.0398 µM)
MIC50 (MDCK [27]): > 100 µg/mL
MIC50 (HeLa [21]): 0.2 µg/mL (≈ 0.796 µM)
MIC50 (E6SM [22]): 0.1 µg/mL (≈ 0.398 µM)
IC50 (L1210): 500 nM
MIC50 (CCRF-CEM [23]): > 0.16 µg/mL
IC50 (Homo sapiens [24]): 390 nM

Nc1ncnc2c1ncn2[C@@H]1C=C(CO)[C@@H](O)[C@H]1O [NEOPLANOCIN A]
MIC50 (Vero [1]): 0.7 µg/mL (≈ 2.66 µM)
MIC50 (MDCK [2]): 1.2 µg/mL (≈ 4.56 µM)
MIC50 (Vero [3]): 0.4 µg/mL (≈ 1.52 µM)
MIC50 (E6SM [4]): 0.2 µg/mL (≈ 0.76 µM)
MIC50 (E6SM [5]): > 100 µg/mL
MIC50 (Vero [6]): > 10 µg/mL
MIC50 (HEL [7]): 6 µg/mL (≈ 22.8 µM)
MIC50 (HeLa [9]): > 10 µg/mL
MIC50 (HeLa [10]): > 10 µg/mL
MIC50 (HEL [11]): 3.5 µg/mL (≈ 13.3 µM)
MIC50 (HeLa [12]): 0.2 µg/mL (≈ 0.76 µM)
MIC50 (Vero [13]): 0.4 µg/mL (≈ 1.52 µM)
MIC50 (MDCK [14]): > 2.8 µg/mL
MIC50 (E6SM [15]): 70 µg/mL (≈ 266 µM)
Ki (Adenosylhomocysteinase): 3 nM
MIC50 (HEL [17]): 0.2 µg/mL (≈ 0.76 µM)
MIC50 (Vero [18]): > 10 µg/mL
MIC50 [19]: > 1.2 µg/mL
MIC50 (HEL [20]): 0.2 µg/mL (≈ 0.76 µM)
MIC50 (HeLa [21]): 2 µg/mL (≈ 7.6 µM)
MIC50 (E6SM [22]): 2 µg/mL (≈ 7.6 µM)
